Laboratory results: PubChem BioAssay AID1963827 (Molecular Pharmacology Branch, DTP, NCI, 2024)

System: 994946-033-R-J1-PDC complex spheroid viability
Assay: Anticancer human tumor 994946-033-R-J1-PDC patient-derived melanoma cell line growth inhibition [POLQ]
Details: for IC50: curve of first compound; for viability, T/C: stronger effect = lower value; active means viability on the fitted dose curve at most 10% of control; inactive means the rest
In short: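 Patient-derived tumour cells were co-cultured with HUVEC and mesenchymal stem cells as multicellular spheroids at 37 °C. They were treated with POLQ inhibitors (novobiocin, ART-558, RP6685) alone or combined with other agents. Top concentrations were at or near clinical Cmax (otherwise 10 microM; SN-38 at 1 microM), decreasing in half-log steps.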

[1] = second compound 0.0316 µM, first compound 0.0316 µM
[2] = second compound 0.0316 µM, first compound 0.1 µM
[3] = second compound 0.0316 µM, first compound 0.316 µM
[4] = second compound 0.0316 µM, first compound 1 µM
[5] = second compound 0.1 µM, first compound 0.0316 µM
[6] = second compound 0.1 µM, first compound 0.1 µM
[7] = second compound 0.1 µM, first compound 0.316 µM
[8] = second compound 0.1 µM, first compound 1 µM
[9] = second compound 0.316 µM, first compound 0.0316 µM
[10] = second compound 0.316 µM, first compound 0.1 µM
[11] = second compound 0.316 µM, first compound 0.316 µM
[12] = second compound 0.316 µM, first compound 1 µM
[13] = second compound 1 µM, first compound 0.0316 µM
[14] = second compound 1 µM, first compound 0.1 µM
[15] = second compound 1 µM, first compound 0.316 µM
[16] = second compound 1 µM, first compound 1 µM
[17] = second compound 3.16 µM, first compound 0.0316 µM
[18] = second compound 3.16 µM, first compound 0.1 µM
[19] = second compound 3.16 µM, first compound 0.316 µM
[20] = second compound 3.16 µM, first compound 1 µM
[21] = second compound 10 µM, first compound 0.0316 µM
[22] = second compound 10 µM, first compound 0.1 µM
[23] = second compound 10 µM, first compound 0.316 µM
[24] = second compound 10 µM, first compound 1 µM
[25] = second compound 0.0316 µM, first compound 0.00316 µM
[26] = second compound 0.0316 µM, first compound 0.01 µM
[27] = second compound 0.1 µM, first compound 0.00316 µM
[28] = second compound 0.1 µM, first compound 0.01 µM
[29] = second compound 0.316 µM, first compound 0.00316 µM
[30] = second compound 0.316 µM, first compound 0.01 µM
[31] = second compound 1 µM, first compound 0.00316 µM
[32] = second compound 1 µM, first compound 0.01 µM
[33] = second compound 3.16 µM, first compound 0.00316 µM
[34] = second compound 3.16 µM, first compound 0.01 µM
[35] = second compound 10 µM, first compound 0.00316 µM
[36] = second compound 10 µM, first compound 0.01 µM
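Further: spheroids exposed to drugs for 7 days.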
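Wherever viability, T/C is given: 100% = DMSO vehicle treated spheroids.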

COc1cc2cc(C(=O)CCC(=O)O)sc2cc1OC + COC1C(OC(N)=O)C(O)C(Oc2ccc3c(O)c(NC(=O)c4ccc(O)c(CC=C(C)C)c4)c(=O)oc3c2C)OC1(C)C
inactive: viability, T/C [1] 91.3% | viability, T/C [2] 83% | viability, T/C [3] 98.6% | viability, T/C [4] 118% | viability, T/C (second compound 0.0316 µM, first compound 3.16 µM) 98.8% | viability, T/C (second compound 0.0316 µM, first compound 10 µM) 96.8% | viability, T/C [5] 89.9% | viability, T/C [6] 101% | viability, T/C [7] 109% | viability, T/C [8] 116% | viability, T/C (second compound 0.1 µM, first compound 3.16 µM) 86.8% | viability, T/C (second compound 0.1 µM, first compound 10 µM) 77.5% | viability, T/C [9] 93.5% | viability, T/C [10] 102% | viability, T/C [11] 84.5% | viability, T/C [12] 82.4% | viability, T/C (second compound 0.316 µM, first compound 3.16 µM) 105% | viability, T/C (second compound 0.316 µM, first compound 10 µM) 86.4% | viability, T/C [13] 93.4% | viability, T/C [14] 90.8% | viability, T/C [15] 94.1% | viability, T/C [16] 76.9% | viability, T/C (second compound 1 µM, first compound 3.16 µM) 83.3% | viability, T/C (second compound 1 µM, first compound 10 µM) 100% | viability, T/C [17] 101% | viability, T/C [18] 75.9% | viability, T/C [19] 106% | viability, T/C [20] 82.4% | viability, T/C (second compound 3.16 µM, first compound 3.16 µM) 87.5% | viability, T/C (second compound 3.16 µM, first compound 10 µM) 78.6% | viability, T/C [21] 90.8% | viability, T/C [22] 109% | viability, T/C [23] 83.7% | viability, T/C [24] 71.4% | viability, T/C (second compound 10 µM, first compound 3.16 µM) 105% | viability, T/C (second compound 10 µM, first compound 10 µM) 80.6%
> 10000 nM: IC50 (second compound 0.0316 µM) | IC50 (second compound 0.1 µM) | IC50 (second compound 0.316 µM) | IC50 (second compound 1 µM) | IC50 (second compound 3.16 µM) | IC50 (second compound 10 µM)

COc1cccc(OCCCN)c1-c1cc(Nc2cnc(C#N)cn2)n[nH]1 + COC1C(OC(N)=O)C(O)C(Oc2ccc3c(O)c(NC(=O)c4ccc(O)c(CC=C(C)C)c4)c(=O)oc3c2C)OC1(C)C
4.49 nM: IC50 (second compound 10 µM)
5.63 nM: IC50 (second compound 1 µM)
17.2 nM: IC50 (second compound 3.16 µM)
inactive: viability, T/C [25] 73.9% | viability, T/C [26] 69.9% | viability, T/C [1] 32.6% | viability, T/C [2] 24.9% | viability, T/C [3] 13.1% | viability, T/C [4] 9.24% | viability, T/C [27] 84.2% | viability, T/C [28] 60.2% | viability, T/C [5] 27.5% | viability, T/C [6] 14.4% | viability, T/C [7] 22% | viability, T/C [8] 11.6% | viability, T/C [29] 84.3% | viability, T/C [30] 52.7% | viability, T/C [9] 34.9% | viability, T/C [10] 11% | viability, T/C [11] 26.5% | viability, T/C [12] 18.1% | viability, T/C [31] 57.6% | viability, T/C [32] 42.3% | viability, T/C [13] 25.7% | viability, T/C [14] 17.3% | viability, T/C [15] 30.8% | viability, T/C [16] 13.8% | viability, T/C [33] 85.8% | viability, T/C [34] 54.5% | viability, T/C [17] 38.7% | viability, T/C [18] 32.7% | viability, T/C [19] 19.7% | viability, T/C [20] 9.09% | viability, T/C [35] 56.9% | viability, T/C [36] 34.2% | viability, T/C [21] 18.9% | viability, T/C [22] 21.2% | viability, T/C [23] 20.2% | viability, T/C [24] 17.5%
12.1 nM: IC50 (second compound 0.316 µM)
14.3 nM: IC50 (second compound 0.1 µM)
18.8 nM: IC50 (second compound 0.0316 µM)

CC[C@@]1(O)C(=O)OCc2c1cc1n(c2=O)Cc2cc3c(CN(C)C)c(O)ccc3nc2-1 + Cc1cccc(N(C)C(=O)C2C(O)CCN2c2nc(C)cc(C(F)(F)F)c2C#N)c1
21.1 nM: IC50 (second compound 10 µM)
20.1 nM: IC50 (second compound 0.316 µM)
11.2 nM: IC50 (second compound 1 µM)
19.1 nM: IC50 (second compound 0.0316 µM) | IC50 (second compound 0.1 µM)
18.3 nM: IC50 (second compound 3.16 µM)
inactive: viability, T/C (second compound 0.0316 µM, first compound 0.000316 µM) 80.5% | viability, T/C (second compound 0.0316 µM, first compound 0.001 µM) 94% | viability, T/C [25] 110% | viability, T/C [26] 73% | viability, T/C [1] 30.9% | viability, T/C (second compound 0.1 µM, first compound 0.000316 µM) 113% | viability, T/C (second compound 0.1 µM, first compound 0.001 µM) 78.6% | viability, T/C [27] 87% | viability, T/C [28] 78% | viability, T/C [5] 28.5% | viability, T/C (second compound 0.316 µM, first compound 0.000316 µM) 83.4% | viability, T/C (second compound 0.316 µM, first compound 0.001 µM) 106% | viability, T/C [29] 94.8% | viability, T/C [30] 82% | viability, T/C [9] 29.2% | viability, T/C [10] 12.1% | viability, T/C (second compound 1 µM, first compound 0.000316 µM) 108% | viability, T/C (second compound 1 µM, first compound 0.001 µM) 71.3% | viability, T/C [31] 79.3% | viability, T/C [32] 57.5% | viability, T/C [13] 26.9% | viability, T/C (second compound 3.16 µM, first compound 0.000316 µM) 96.1% | viability, T/C (second compound 3.16 µM, first compound 0.001 µM) 98.7% | viability, T/C [33] 77% | viability, T/C [34] 71% | viability, T/C [17] 33.4% | viability, T/C (second compound 10 µM, first compound 0.000316 µM) 113% | viability, T/C (second compound 10 µM, first compound 0.001 µM) 99.6% | viability, T/C [35] 107% | viability, T/C [36] 81.8% | viability, T/C [21] 32.7% | viability, T/C [22] 10.4%
active: viability, T/C [2] 8.8% | viability, T/C [6] 9.63% | viability, T/C [14] 9.85% | viability, T/C [18] 10.7%
